According to paper PMC9785169, “New Insights Regarding Hemin Inhibition of the Purified Rat Brain 2-Oxoglutarate Carrier and Relationships with Mitochondrial Dysfunction” (Journal of Clinical Medicine, 2022):

Biological target: T1, 2-oxoglutarate/malate carrier (OGC) (Rattus norvegicus, UniProt P97700)
T1 construct: gene Slc25a11; OGC purified from rat brain mitochondria, reconstituted into proteoliposomes
T1 sequence (P97700 2-314): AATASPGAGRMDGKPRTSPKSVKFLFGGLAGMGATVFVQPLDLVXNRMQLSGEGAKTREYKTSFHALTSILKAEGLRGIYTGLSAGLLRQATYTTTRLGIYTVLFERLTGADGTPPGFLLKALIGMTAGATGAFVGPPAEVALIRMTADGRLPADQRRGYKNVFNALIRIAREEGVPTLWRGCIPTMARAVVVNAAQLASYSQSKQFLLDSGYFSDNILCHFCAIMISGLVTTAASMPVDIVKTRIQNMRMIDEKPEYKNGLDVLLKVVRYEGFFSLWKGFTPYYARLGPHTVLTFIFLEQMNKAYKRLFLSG
Assay: […]malate uptake inhibition in proteoliposomes reconstituted with purified OGC, internal hemin
Format: biochemical

C=CC1=C(C)C2=Cc3c(C=C)c(C)c4[n]3[Fe]([Cl])[n]3c(c(C)c(CCC(=O)O)c3=CC3=NC(=C4)C(C)=C3CCC(=O)O)=CC1=N2 [hemin]
IC50: 82 ± 7 nM
